From patent publication US20240208962A1, “MICROBIOCIDAL QUINOLINE/QUINOXALINE BENZOTHIAZINE DERIVATIVES” (SYNGENTA CROP PROTECTION AG, priority 2021, published 2024) come the findings set out here.

Series [1] has as its system Colletotrichum lagenarium. Put plainly: Comparative: Colletotrichum lagenarium / cucumber / preventative (Anthracnose). Format: in vivo. As to conditions: rate of application 200 ppm, Colletotrichum lagenarium on cucumber cv. Wisconsin, emulsifiable concentrate, 6-8 days after application.
The subject of the next series is Botrytis cinerea. Put plainly: Comparative: Botrytis cinerea / tomato / preventative. In kind it is in vivo. Conditions: rate of application 200 ppm, Botrytis cinerea on tomato, emulsifiable concentrate, 5-6 days after application.
The next series concerns Venturia inaequalis. Put plainly: Comparative: Venturia inaequalis / apple / preventative (Scab on apple). As to conditions: rate of application 200 ppm, Venturia inaequalis on apple seedlings, emulsifiable concentrate, 11-13 days after application. Format: in vivo.
Series [2] deals with Mycosphaerella graminicola (Septoria tritici). The series is described as follows: Mycosphaerella graminicola (Septoria tritici) on wheat / preventative. Format: in vivo. Conditions: Zymoseptoria tritici, wheat plants cv. Riband, preventative spray, 16 to 19 days after application, read-out: control of Mycosphaerella graminicola compared to untreated control.
Series [3] concerns Botryotinia fuckeliana (Botrytis cinerea). Put plainly: Botryotinia fuckeliana (Botrytis cinerea) / liquid culture (Gray mould). Format: cell-based. As to conditions: liquid culture Vogels broth, 3-4 days after application, read-out: control of Botryotinia fuckeliana (inhibition of growth, photometric).
Series [4] concerns Glomerella lagenarium (Colletotrichum lagenarium). The series is described as follows: Glomerella lagenarium (Colletotrichum lagenarium) / liquid culture (Anthracnose). Format: cell-based. As to conditions: Colletotrichum orbiculare, liquid culture PDB, 3-4 days after application, read-out: control of Glomerella lagenarium (inhibition of growth, photometric).
For series [5], the system named is Mycosphaerella graminicola (Septoria tritici). The series is described as follows: Comparative: Mycosphaerella graminicola (Septoria tritici) on wheat / preventative, emulsifiable concentrate. In kind it is in vivo. As to conditions: rate of application 60 ppm, Mycosphaerella graminicola on wheat cv. Riband, 16 to 19 days after application.
The subject of series [6] is Monographella nivalis (Microdochium nivale). The series is described as follows: Monographella nivalis (Microdochium nivale) / liquid culture (foot rot cereals). Conditions: liquid culture PDB, 4 to 5 days after application, read-out: control of Monographella nivalis (inhibition of growth, photometric). Format: cell-based.
The test system of a further series is Fusarium culmorum. The series is described as follows: microbe, parasite or virus in culture. Format: cell-based. Conditions: read-out: control of Fusarium culmorum (inhibition of growth, photometric).

The term melting point denotes the temperature of the solid-liquid transition. For orientation: inhibition means the share of the control response that was lost under treatment.

`Cc1cccc2c1SC(C)(C)N=C2c1cnc2c(F)c(F)ccc2c1` [Compound E.01, 4-(7,8-difluoro-3-quinolyl)-2,2,8-trimethyl-1,3-benzothiazine] displayed a melting point of 137 to 139 °C. Moreover, the “Efficacy (% control)” value in series [1] is 97 % control. In addition, the “Efficacy (% control)” value in the series with Botrytis cinerea is on record as 97 % control. Also, the “Efficacy (% control)” value in the series with Venturia inaequalis was determined as 97 % control. For the same molecule, the pest or weed control at 60 ppm in [2] was at least 80%. Also, the inhibition at 20 ppm in series [3] was at least 80%. Moreover, the inhibition at 20 ppm in series [4] was at least 80%. Besides, the “Efficacy (% control)” value in series [5] is 72 % control.

In turn, `CC1(C)N=C(c2cnc3c(F)c(F)ccc3c2)c2cccc(Cl)c2S1` [Compound E.02, 8-chloro-4-(7,8-difluoro-3-quinolyl)-2,2-dimethyl-1,3-benzothiazine] yielded a melting point of 134 to 136 °C. For the same molecule, in [1], the “Efficacy (% control)” value is given as 97 % control. In the series with Botrytis cinerea, the “Efficacy (% control)” value is 95 % control. For the same molecule, in the series with Venturia inaequalis, the “Efficacy (% control)” value came out at 97 % control. Besides, the pest or weed control at 60 ppm in series [2] is at least 80%. In series [3], the inhibition at 20 ppm was at least 80%. Further, in series [4], the inhibition at 20 ppm is at least 80%. Moreover, the “Efficacy (% control)” value in series [5] is given as 99 % control.

`CC1(C)N=C(c2cnc3c(F)cccc3c2)c2cccc(Cl)c2S1` [Compound E.12, 8-chloro-4-(8-fluoro-3-quinolyl)-2,2-dimethyl-1,3-benzothiazine] yielded a melting point of 158 to 160 °C. Moreover, the “Efficacy (% control)” value in series [1] was 100 % control. Besides, in [6], the inhibition at 20 ppm is at least 80%. For the same molecule, the “Efficacy (% control)” value with Botrytis cinerea is given as 95 % control. For the same molecule, the “Efficacy (% control)” value in the series with Venturia inaequalis turned out to be 100 % control. Also, the inhibition at 20 ppm in the series on Fusarium culmorum was at least 80%. Further, the pest or weed control at 60 ppm in [2] is at least 80%. Also, the inhibition at 20 ppm in [3] was at least 80%. Besides, the inhibition at 20 ppm in series [4] was at least 80%. The “Efficacy (% control)” value in series [5] came out at 92 % control.
